Measurements taken from the supplement of paper PMC10627819.

Assays:
S. aureus Newman [1] = test: fitness (endpoint OD595 vs no drug) (fraction); higher = more growth
In short: (§1)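 Fitness was measured as bacterial growth in 384-well plates inoculated at OD595 0.01 (30 µl, or 55 µl for S. pneumoniae). Media were TSB, LB Lennox or CY, at 37 °C. OD595 was read every 30 min for 14 h and background-subtracted against the first reading. Fitness is OD595 at the transition into stationary phase divided by the robust mean of no-drug control wells, capped at 1.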

S. pneumoniae D39V [2] = test: as above
In short: as §1

B. subtilis 168 [3] = test: as above
In short: as §1

S. aureus Newman [4] = test: Bliss interaction score (quartile over a dose matrix) (fitness difference); higher = more antagonism (negative = synergy)
In short: (§2)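 Each OD595 reading at entry into stationary phase was scaled to the robust mean of the untreated wells on its plate, with a ceiling of 1. These ratios define fitness, and single-drug fitness was inferred from combinations. The Bliss score compares observed fitness with the product-based expectation and is reported as quartiles across all replicate types, technical, biological and donor/recipient.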

S. pneumoniae D39V [5] = test: as above
In short: as §2

B. subtilis 168 [6] = test: as above
In short: as §2

S. aureus DSM 20231 = test: as above
In short: as §2
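For Bliss interaction score (quartile over a dose matrix) in this document: first quartile when negative (synergy) and third quartile when positive (antagonism).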
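For fitness (endpoint OD595 vs no drug) in this document: OD595 on entry to stationary phase over no-drug wells; at most 1.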

CC1=C(C(=O)O)N2C(=O)[C@@H](NC(=O)[C@H](N)c3ccccc3)[C@H]2SC1 [Cephalexin] + COc1c(N2C[C@@H]3CCCN[C@@H]3C2)c(F)cc2c(=O)c(C(=O)O)cn(C3CC3)c12 [Moxifloxacin]
Conditions	fitness
B. subtilis 168 [3], first compound 0.125 µg/mL, partner 2 µg/mL	0.0423
B. subtilis 168 [3], first compound 0.125 µg/mL, partner 4 µg/mL	0.0453
B. subtilis 168 [3], first compound 0.125 µg/mL, partner 8 µg/mL	0.0194
B. subtilis 168 [3], first compound 0.25 µg/mL, partner 0.0312 µg/mL	0.0487
B. subtilis 168 [3], first compound 0.25 µg/mL, partner 0.0625 µg/mL	0.0549
B. subtilis 168 [3], first compound 0.25 µg/mL, partner 0.125 µg/mL	0.0364
B. subtilis 168 [3], first compound 0.25 µg/mL, partner 2 µg/mL	0.0473
B. subtilis 168 [3], first compound 0.25 µg/mL, partner 4 µg/mL	0.0392
B. subtilis 168 [3], first compound 0.25 µg/mL, partner 8 µg/mL	0.027
B. subtilis 168 [3], first compound 0.5 µg/mL, partner 0.0312 µg/mL	0.0585
B. subtilis 168 [3], first compound 0.5 µg/mL, partner 0.0625 µg/mL	0.0464
B. subtilis 168 [3], first compound 0.5 µg/mL, partner 0.125 µg/mL	0.0607
B. subtilis 168 [3], first compound 0.5 µg/mL, partner 2 µg/mL	0.0441
B. subtilis 168 [3], first compound 0.5 µg/mL, partner 4 µg/mL	0.0483
B. subtilis 168 [3], first compound 0.5 µg/mL, partner 8 µg/mL	0.0385
B. subtilis 168 [3], first compound 1 µg/mL, partner 0.0312 µg/mL	0.0562
B. subtilis 168 [3], first compound 1 µg/mL, partner 0.0625 µg/mL	0.0588
B. subtilis 168 [3], first compound 1 µg/mL, partner 0.125 µg/mL	0.0618
S. aureus Newman [1], first compound 0.25 µg/mL, partner 0.0075 µg/mL	0.788
S. aureus Newman [1], first compound 0.5 µg/mL, partner 0.0075 µg/mL	0.812
S. aureus Newman [1], first compound 0.5 µg/mL, partner 0.015 µg/mL	0.691
S. aureus Newman [1], first compound 1 µg/mL, partner 0.0075 µg/mL	0.807
S. pneumoniae D39V [2], first compound 4 µg/mL, partner 0.005 µg/mL	0.0502
S. pneumoniae D39V [2], first compound 4 µg/mL, partner 0.01 µg/mL	0.059
S. pneumoniae D39V [2], first compound 4 µg/mL, partner 0.02 µg/mL	0.0505

fitness, S. pneumoniae D39V [2], one replicate
Conditions	first compound 0.125 µg/mL	first compound 0.25 µg/mL	first compound 0.5 µg/mL
partner 0.0037 µg/mL	0.856	0.855	0.836
partner 0.0075 µg/mL	0.948	0.843	0.819
partner 0.015 µg/mL	0.839	0.813	0.808

Conditions	Bliss interaction score
B. subtilis 168 [6]	0.0149
S. aureus DSM 20231	-0.0585
S. aureus Newman [4]	0.07
S. pneumoniae D39V [5]	-0.0683

CC1=C(C(=O)O)N2C(=O)[C@@H](NC(=O)[C@H](N)c3ccccc3)[C@H]2SC1 [Cephalexin] + COc1ccc(C[C@H](N)C(=O)N[C@H]2[C@@H](O)[C@H](n3cnc4c(N(C)C)ncnc43)O[C@@H]2CO)cc1 [Puromycin]
fitness
Conditions	first compound 0.125 µg/mL	first compound 0.25 µg/mL	first compound 0.5 µg/mL	first compound 1 µg/mL
B. subtilis 168 [3], partner 0.39 µg/mL	0.944	0.912	0.869	–
B. subtilis 168 [3], partner 0.78 µg/mL	0.952	0.891	0.935	–
B. subtilis 168 [3], partner 1.56 µg/mL	0.921	0.888	0.938	–
S. aureus Newman [1], partner 0.39 µg/mL	–	0.991	≥ 1	0.99
S. aureus Newman [1], partner 0.78 µg/mL	–	≥ 1	≥ 1	≥ 1
S. aureus Newman [1], partner 1.56 µg/mL	–	≥ 1	0.976	0.991

fitness, S. pneumoniae D39V [2], one replicate
Conditions	first compound 0.125 µg/mL	first compound 0.25 µg/mL	first compound 0.5 µg/mL	first compound 1 µg/mL	first compound 2 µg/mL	first compound 4 µg/mL
partner 1 µg/mL	≥ 1	≥ 1	≥ 1	0.158	0.0772	0.0589
partner 2 µg/mL	0.939	0.926	≥ 1	0.3	0.0861	0.055
partner 4 µg/mL	0.798	0.883	0.893	0.0824	0.0686	0.047

Conditions	Bliss interaction score
B. subtilis 168 [6]	0.0628
S. aureus DSM 20231	0.0696
S. aureus Newman [4]	0.043
S. pneumoniae D39V [5]	-0.101

CC1=C(C(=O)O)N2C(=O)[C@@H](NC(=O)[C@H](N)c3ccccc3)[C@H]2SC1 [Cephalexin] + C[n+]1ccc(-c2cc[n+](C)cc2)cc1 [Paraquat]
fitness
Conditions	first compound 0.125 µg/mL	first compound 0.25 µg/mL	first compound 0.5 µg/mL	first compound 1 µg/mL
B. subtilis 168 [3], partner 1.25 µg/mL	0.908	0.892	0.924	–
B. subtilis 168 [3], partner 2.5 µg/mL	0.937	0.912	0.902	–
B. subtilis 168 [3], partner 5 µg/mL	0.815	0.795	0.851	–
S. aureus Newman [1], partner 1.25 µg/mL	–	0.986	0.874	0.874
S. aureus Newman [1], partner 2.5 µg/mL	–	0.996	≥ 1	0.918
S. aureus Newman [1], partner 5 µg/mL	–	0.982	0.963	≥ 1

fitness, S. pneumoniae D39V [2], one replicate
Conditions	first compound 0.125 µg/mL	first compound 0.25 µg/mL	first compound 0.5 µg/mL	first compound 1 µg/mL	first compound 2 µg/mL	first compound 4 µg/mL
partner 1.5 µg/mL	0.999	0.982	0.998	0.828	0.21	0.0243
partner 3 µg/mL	0.909	0.913	0.928	0.865	0.286	0.0238
partner 6 µg/mL	0.896	0.897	0.9	0.861	0.328	0.0875

Conditions	Bliss interaction score
B. subtilis 168 [6]	0.0473
S. aureus DSM 20231	0.0584
S. aureus Newman [4]	0.0521
S. pneumoniae D39V [5]	0.135

CC1=C(C(=O)O)N2C(=O)[C@@H](NC(=O)[C@H](N)c3ccccc3)[C@H]2SC1 [Cephalexin] + Cc1cc(NS(=O)(=O)c2ccc(N)cc2)no1 [Sulfamethoxazol]
fitness
Conditions	first compound 0.125 µg/mL	first compound 0.25 µg/mL	first compound 0.5 µg/mL	first compound 1 µg/mL
B. subtilis 168 [3], partner 1 µg/mL	0.951	0.924	0.895	–
B. subtilis 168 [3], partner 2 µg/mL	0.904	0.937	0.902	–
B. subtilis 168 [3], partner 4 µg/mL	0.955	0.929	0.945	–
S. aureus Newman [1], partner 1 µg/mL	–	≥ 1	0.988	1
S. aureus Newman [1], partner 2 µg/mL	–	≥ 1	0.979	0.983
S. aureus Newman [1], partner 4 µg/mL	–	0.999	≥ 1	≥ 1

fitness, one replicate
Conditions	first compound 0.125 µg/mL	first compound 0.25 µg/mL	first compound 0.5 µg/mL	first compound 1 µg/mL	first compound 2 µg/mL	first compound 4 µg/mL
B. subtilis 168 [3], partner 0.5 µg/mL	–	0.987	≥ 1	≥ 1	–	–
B. subtilis 168 [3], partner 1 µg/mL	–	–	–	0.861	–	–
B. subtilis 168 [3], partner 2 µg/mL	–	–	–	0.809	–	–
S. aureus Newman [1], partner 2 µg/mL	–	–	–	–	≥ 1	–
S. aureus Newman [1], partner 4 µg/mL	–	–	–	–	≥ 1	–
S. aureus Newman [1], partner 8 µg/mL	–	–	0.944	≥ 1	≥ 1	–
S. pneumoniae D39V [2], partner 1 µg/mL	0.92	0.925	0.933	0.678	0.0509	0
S. pneumoniae D39V [2], partner 2 µg/mL	0.961	0.937	0.979	0.717	0.165	0.0786
S. pneumoniae D39V [2], partner 4 µg/mL	0.963	0.972	0.954	0.685	0.209	0.013

Conditions	Bliss interaction score
B. subtilis 168 [6]	0.0517
S. aureus DSM 20231	0.059
S. aureus Newman [4]	-0.021
S. pneumoniae D39V [5]	0.0504
